# Results taken from patent publication US10617677B2, “Nuclear transport modulators and uses thereof” (Biogen MA Inc., priority 2012, dated 2020).
# Entries after “also recorded” stand apart in the source; their conditions may differ.
# Key:
# COX-2 = COX-2 protein expression in HeLa cells (immunoblot); type: cell-based; conditions: 1 μM Compound 1 + 20 ng/ml TNFα, 24 hours
# Experimental: HeLa cells were plated in a 6-well culture dish (5×10^5 cells/well) with EMEM medium (Lonza) supplemented with 10% heat-inactivated fetal bovine serum (Invitrogen). Two of the wells of the plate were pre-treated with 1 μM of Compound 1 for 30 minutes, at which time one of the wells was exposed to 20 ng/ml TNFα (Preprotech) for 24 hours. The other wells were treated with either 20 ng/ml TNFα or nothing for 24 hours. Following the treatment, whole-cell lysates were generated from the cells by lysis with RIPA buffer supplemented with protease and phosphatase inhibitors (Roche). Immunoblot detection of COX-2 protein was performed using an anti-COX-2 antibody (Cayman). Signal intensity for the COX-2 protein was normalized to that of beta-actin (Santa Cruz) for each sample and plotted graphically as arbitrary intensity units.
# Z-138 xenograft tumors = assay: Z-138 lymphoma xenograft in SCID mice; type: in vivo
# Experimental: Z-138 (ATCC # CRL-3001) mantle cell lymphoma cells were obtained from ATCC. These cells were grown in IMEM medium supplemented with 10% horse serum, 1% penicillin and streptomycin, and 2 mM L-glutamine. […] Twenty-four (24) female CB-17 SCID mice (Charles River Labs strain code 236), aged 5 to 6 weeks were used. The SCID mice were inoculated in the left flank with Z-138 cells in a volume of 0.2 mL, equivalent to 4×10^7 cells per mouse. […] Mice were allocated to […] prior to the initiation of treatment based on tumor volume such that mean tumor volume in each group was within the range of 77 to 92 mm^3. […] Animals were fed with Labdiet® 5001 rodent chow and sterile water ad libitum. […] Animals with weight loss of more than 20% of their starting weight were euthanized. Mice with weight loss of more than 15% of their starting weight were not treated again until weight loss recovered to less than 5% of their starting weight. Any animals with a tumor volume of more than 1500 mm^3 were euthanized. Dosing solutions were prepared fresh on each day of dosing. […] This was prepared by dissolving the lyophilized powder in sterile water.
# IMQ-induced psoriasis = assay: Imiquimod (IMQ)-induced dermal inflammation/psoriasis model, Study 2; type: in vivo, mice; conditions: for Rate of reduction of DAI, % change from 1st dose administration: Compound 2 2.5 mg/kg, cyclophosphamide 10 mg/kg
# Experimental: Forty (40) male BALB/c mice (Biological E Limited, Hyderabad (CPCSEA registration number: 36/99/CPCSEA)) were divided into four (4) groups consisting of ten (10) mice each. Animals were randomized based on their body weight. The groups were designated as Group-I (Naïve), Group-II (IMQ; vehicle (PEG 400 and HPBCD)), Group-III (IMQ; Compound 2 (2.5 mg/kg)) and […] (IMQ; cyclophosphamide (10 mg/kg)).
# A small area on the dorsum of each mouse was shaved, ensuring that these areas were of equal size/area. Psoriasis was induced in Groups II to IV by topical application of 50 mg of IMQ cream daily from Day 1 to Day 6 on the dorsum of the animals. On Day 1 and Day 2 of the study, four hours after topical application of IMQ, Compound 2 or positive control (cyclophosphamide) or vehicle were administered to animals in pertinent groups. Of note, animals in Group II and Group III were subjected to subcutaneous injections, whereas animals in Group IV received oral administration. The Compound 2, vehicle and cyclophosphamide treatment was terminated on Day 2. These groups of animals were maintained on daily IMQ treatments until Day 6. On Day 7, the psoriasis-induced animals were re-randomized into 3 groups consisting of 10 animals each based on Cumulative Disease Activity Index (CDAI). From Day 7 to Day 9, animals received vehicle or positive control or Compound 2. Of note, on these days animals were not treated with IMQ. From Day 10 to Day 14, the animals were treated alternatively with IMQ (Days 10, 12 and 14), or vehicle, positive control or Compound 2 (Days 11, 13).
# All animals were observed daily for a period of 16 days for gross observations, body weight and feed and water intake. On Days 1 and 2, scorings of erythema, scaling, folding and thickening of skin were recorded 2 hours after administration of vehicle/positive control/test compounds, and on Days 3 to 14 scorings were recorded 4 hours after IMQ application, or administration of positive control, vehicle or Compound 2.
# Vehicle was prepared by dissolving 40 mg of HPBCD in 70.0 mL of distilled water. Compound 2 was prepared by dissolving 3.59 mg in 0.5% PVP and 0.5% Pluronic. Cyclophosphamide was prepared by dissolving 500 mg of CMC in 100 mL distilled water.
# The experimental results shown in Table 10 are expressed as mean±SEM. Data was assessed using one-way ANOVA, and post hoc analysis was performed using Dunnett's test.
# obese Zucker rats = assay: Food intake and body weight in Zucker rats; type: in vivo
# Experimental: Twenty-one (21) male Zucker rats aged 7 months were allocated into 3 groups of N=7 based on equivalent body weights and food intakes. An additional group of N=7 age matched Zucker lean controls were included as a control. Body weights and food and water intakes were measured at approximately the same time each day (14:30-15:30 h). On treatment days, dosing was at 14:30-15:30 h (approximately 2 hours before lights off).
# The Zucker obese and lean controls were orally treated with vehicle (10 mL/kg dose volume; 0.5% Pluronic F68 and 0.5% PVP K29/32 in water) on each weekday. Both Compound 2 (1.5 mg/kg and 3 mg/kg) groups were orally treated on each weekday (10 mL/kg dose volume; 0.5% Pluronic F68 and 0.5% PVP K29/32 in water). Prior to the treatment phase, 4 days baseline data were collected. The treatment phase was for 16 days and a washout phase of 6 days was also included.
# [1] = 1.5-3 mg/kg oral, 16 day treatment period
compound,measurement,setting,value
"CC(C)(C)C(=O)NNC(=O)/C=C\n1cnc(-c2cc(C(F)(F)F)cc(C(F)(F)F)c2)n1 [Compound 1, (Z)-3-(3-(3,5-bis(trifluoromethyl)phenyl)-1H-1,2,4-triazol-1-yl)-N′-pivaloylacrylohydrazide]",COX-2 protein expression,COX-2,decreased the amount of COX-2 protein in the presence of TNFα; also recorded: does reduce the amount of TNFα induced expression of COX-2 protein; also recorded: inhibits TNFα-induced COX-2 protein expression
"O=C(/C=C\n1cnc(-c2cc(C(F)(F)F)cc(C(F)(F)F)c2)n1)NNC(=O)CN1CCOCC1 [Compound 2, (Z)-3-(3-(3,5-bis(trifluoromethyl)phenyl)-1H-1,2,4-triazol-1-yl)-N′-(2-morpholinoacetyl)acrylohydrazide]",weight loss,Z-138 xenograft tumors; 15 mg/kg PO MWF,Some weight loss was observed
same,"tumor growth relative to vehicle (area under the growth curves, ANOVA)","Z-138 xenograft tumors; Compound 2 15 or 7.5 mg/kg PO MWF, cyclophosphamide 80 mg/kg IP",antitumor effect at both 7.5 mg/kg and 15 mg/kg doses in a dose dependent manner
same,"body weight, food consumption and water intake",IMQ-induced psoriasis; 2.5 mg/kg subcutaneous,without greatly impacting the consumption of food or water
same,rate of reduction of disease activity index versus vehicle,IMQ-induced psoriasis; 2.5 mg/kg subcutaneous,significantly greater than that observed in animals treated with vehicle; also recorded: diminished IMQ-induced disease manifestation
same,"Rate of reduction of DAI, % change from 1st dose administration","IMQ-induced psoriasis; Day 7, 4 hr. post-IMQ/drug administration readings",−30.9%
same,"Rate of reduction of DAI, % change from 1st dose administration","IMQ-induced psoriasis; Day 7, pre-IMQ/drug administration readings",0.0%
same,"Rate of reduction of DAI, % change from 1st dose administration","IMQ-induced psoriasis; Day 8, 4 hr. post-IMQ/drug administration readings",−35.3%
same,"Rate of reduction of DAI, % change from 1st dose administration","IMQ-induced psoriasis; Day 8, pre-IMQ/drug administration readings",−33.8%
same,"Rate of reduction of DAI, % change from 1st dose administration","IMQ-induced psoriasis; Day 9, 4 hr. post-IMQ/drug administration readings",−63.2%
same,"Rate of reduction of DAI, % change from 1st dose administration","IMQ-induced psoriasis; Day 9, pre-IMQ/drug administration readings",−58.8%
same,"Rate of reduction of DAI, % change from 1st dose administration","IMQ-induced psoriasis; Day 10, 4 hr. post-IMQ/drug administration readings",−88.2%
same,"Rate of reduction of DAI, % change from 1st dose administration","IMQ-induced psoriasis; Day 10, pre-IMQ/drug administration readings",−88.2%
same,"Rate of reduction of DAI, % change from 1st dose administration","IMQ-induced psoriasis; Day 11, 4 hr. post-IMQ/drug administration readings",−70.6%
same,"Rate of reduction of DAI, % change from 1st dose administration","IMQ-induced psoriasis; Day 11, pre-IMQ/drug administration readings",−73.5%
same,"Rate of reduction of DAI, % change from 1st dose administration","IMQ-induced psoriasis; Day 12, 4 hr. post-IMQ/drug administration readings",−73.5%
same,"Rate of reduction of DAI, % change from 1st dose administration","IMQ-induced psoriasis; Day 12, pre-IMQ/drug administration readings",−80.9%
same,"Rate of reduction of DAI, % change from 1st dose administration","IMQ-induced psoriasis; Day 13, 4 hr. post-IMQ/drug administration readings",−60.3%
same,"Rate of reduction of DAI, % change from 1st dose administration","IMQ-induced psoriasis; Day 13, pre-IMQ/drug administration readings",−61.8%
same,"Rate of reduction of DAI, % change from 1st dose administration","IMQ-induced psoriasis; Day 14, 4 hr. post-IMQ/drug administration readings",−63.2%
same,"Rate of reduction of DAI, % change from 1st dose administration","IMQ-induced psoriasis; Day 14, pre-IMQ/drug administration readings",−66.2%
same,"Rate of reduction of DAI, % change from 1st dose administration","IMQ-induced psoriasis; Day 15, pre-IMQ/drug administration readings",−64.7%
same,body weight gain versus Zucker vehicle group,obese Zucker rats; 1.5 mg/kg oral,no significant difference in weight gain
same,body weight gain versus Zucker vehicle group,obese Zucker rats; 3 mg/kg oral,significant difference in body weight gain; also recorded: lower weight gain
same,body weight compared to Zucker control group,obese Zucker rats; [1],dose-related decrease
same,daily food intake compared to Zucker control group,obese Zucker rats; [1],dose-related decrease; also recorded: dose dependent decrease
same,water intake,obese Zucker rats; [1],significantly increased water intake
